Calls of active or inactive are those of the source. No cut-off for these calls is given here.
Assays:
[1] = molecular target: Epidermal growth factor receptor (Homo sapiens) (UniProt P00533); assay: Inhibition of human EGFR at 10 uM after 20 to 40 mins by liquid scintillation counting analysis in presence of […]
[2] = system: SK-MEL-5; assay: Cytotoxicity against human SK-MEL-5 cells after 72 hrs by SRB assay; format: functional; conditions: SK-MEL-5, 72 h
[3] = Cytotoxicity against human SF268 cells after 72 hrs by SRB assay; format: functional; conditions: SF-268, 72 h
[4] = system: NCI-H460; assay: Cytotoxicity against human NCI-H460 cells after 72 hrs by SRB assay; format: functional; conditions: NCI-H460, 72 h
[5] = Cytotoxicity against human Hs 578T cells after 72 hrs by SRB assay; format: functional
[6] = Cytotoxicity against human SW620 cells after 72 hrs by SRB assay; format: functional; conditions: SW-620, 72 h
[7] = Cytotoxicity against human HOP62 cells after 72 hrs by SRB assay; format: functional; conditions: HOP-62, 72 h
[8] = system: A549; assay: Cell cycle arrest in human A549 cells assessed as accumulation at G0/G1 phase at IC50 after 48 hrs by FACS flow cytometric analysis relative to control; format: functional
[9] = Cytotoxicity against human MOLT4 cells after 72 hrs by SRB assay; format: functional; conditions: MOLT-4, 72 h
[10] = Cytotoxicity against human HOP92 cells after 72 hrs by SRB assay; format: functional; conditions: HOP-92, 72 h
[11] = Cytotoxicity against human NCI-ADR-RES cells after 72 hrs by SRB assay; format: functional
[12] = system: 786-0; assay: Cytotoxicity against human 786-0 cells after 72 hrs by SRB assay; format: functional; conditions: 786-0, 72 h
[13] = system: A549; assay: Upregulation of p27kip1 expression in human A549 cells by Western blotting analysis; format: functional
[14] = system: MDA-MB-435; assay: Cytotoxicity against human MDA-MB-435 cells after 72 hrs by SRB assay; format: functional; conditions: MDA-MB-435, 72 h
[15] = Cytotoxicity against human HCC2998 cells after 72 hrs by SRB assay; format: functional; conditions: HCC 2998, 72 h
[16] = system: CCRF-CEM; assay: Cytotoxicity against human CCRF-CEM cells after 72 hrs by SRB assay; format: functional
[17] = Cytotoxicity against human UACC257 cells after 72 hrs by SRB assay; format: functional; conditions: UACC-257, 72 h
[18] = Cytotoxicity against human OVCAR8 cells after 72 hrs by SRB assay; format: functional; conditions: OVCAR-8, 72 h
[19] = Cytotoxicity against human OVCAR5 cells after 72 hrs by SRB assay; format: functional; conditions: OVCAR-5, 72 h
[20] = Cytotoxicity against human SF295 cells after 72 hrs by SRB assay; format: functional; conditions: SF-295, 72 h
[21] = Cytotoxicity against human HCT116 cells after 72 hrs by SRB assay; format: functional; conditions: HCT-116, 72 h
[22] = system: MCF7; assay: Cytotoxicity against human MCF7 cells after 72 hrs by SRB assay; format: functional, cell-based; conditions: MCF7, 72 h
[23] = Cytotoxicity against human COLO205 cells after 72 hrs by SRB assay; format: functional; conditions: COLO 205, 72 h
[24] = system: T47D; assay: Cytotoxicity against human T47D cells after 72 hrs by SRB assay; format: functional
[25] = Cytotoxicity against human RXF393 cells after 72 hrs by SRB assay; format: functional; conditions: RXF 393, 72 h
[26] = system: MDA-MB-468; assay: Cytotoxicity against human MDA-MB-468 cells after 72 hrs by SRB assay; format: functional; conditions: MDA-MB-468, 72 h
[27] = Cytotoxicity against human HCT15 cells after 72 hrs by SRB assay; format: functional; conditions: HCT-15, 72 h
[28] = system: A498; assay: Cytotoxicity against human A498 cells after 72 hrs by SRB assay; format: functional; conditions: A498, 72 h
[29] = Cytotoxicity against human SKOV3 cells after 72 hrs by SRB assay; format: functional; conditions: SK-OV-3, 72 h
[30] = system: ACHN; assay: Cytotoxicity against human ACHN cells after 72 hrs by SRB assay; format: functional
[31] = Cytotoxicity against human SNB75 cells after 72 hrs by SRB assay; format: functional; conditions: SNB-75, 72 h
[32] = system: NCI-H322M; assay: Cytotoxicity against human NCI-H322M cells after 72 hrs by SRB assay; format: functional
[33] = system: NCI-H23; assay: Cytotoxicity against human NCI-H23 cells after 72 hrs by SRB assay; format: functional; conditions: NCI-H23, 72 h
[34] = Cytotoxicity against human IGROV1 cells after 72 hrs by SRB assay; format: functional; conditions: IGROV-1, 72 h
[35] = molecular target: Platelet-derived growth factor receptor (Homo sapiens) (UniProt P09619+P16234); assay: Inhibition of PDGFR (unknown origin) at 10 uM after 20 to 40 mins by liquid scintillation counting analysis in presence of […]; format: protein-complex assay
[36] = read-out: LC50 (the source's name)

Chain of Epidermal growth factor receptor (Homo sapiens) (P00533 whole entry): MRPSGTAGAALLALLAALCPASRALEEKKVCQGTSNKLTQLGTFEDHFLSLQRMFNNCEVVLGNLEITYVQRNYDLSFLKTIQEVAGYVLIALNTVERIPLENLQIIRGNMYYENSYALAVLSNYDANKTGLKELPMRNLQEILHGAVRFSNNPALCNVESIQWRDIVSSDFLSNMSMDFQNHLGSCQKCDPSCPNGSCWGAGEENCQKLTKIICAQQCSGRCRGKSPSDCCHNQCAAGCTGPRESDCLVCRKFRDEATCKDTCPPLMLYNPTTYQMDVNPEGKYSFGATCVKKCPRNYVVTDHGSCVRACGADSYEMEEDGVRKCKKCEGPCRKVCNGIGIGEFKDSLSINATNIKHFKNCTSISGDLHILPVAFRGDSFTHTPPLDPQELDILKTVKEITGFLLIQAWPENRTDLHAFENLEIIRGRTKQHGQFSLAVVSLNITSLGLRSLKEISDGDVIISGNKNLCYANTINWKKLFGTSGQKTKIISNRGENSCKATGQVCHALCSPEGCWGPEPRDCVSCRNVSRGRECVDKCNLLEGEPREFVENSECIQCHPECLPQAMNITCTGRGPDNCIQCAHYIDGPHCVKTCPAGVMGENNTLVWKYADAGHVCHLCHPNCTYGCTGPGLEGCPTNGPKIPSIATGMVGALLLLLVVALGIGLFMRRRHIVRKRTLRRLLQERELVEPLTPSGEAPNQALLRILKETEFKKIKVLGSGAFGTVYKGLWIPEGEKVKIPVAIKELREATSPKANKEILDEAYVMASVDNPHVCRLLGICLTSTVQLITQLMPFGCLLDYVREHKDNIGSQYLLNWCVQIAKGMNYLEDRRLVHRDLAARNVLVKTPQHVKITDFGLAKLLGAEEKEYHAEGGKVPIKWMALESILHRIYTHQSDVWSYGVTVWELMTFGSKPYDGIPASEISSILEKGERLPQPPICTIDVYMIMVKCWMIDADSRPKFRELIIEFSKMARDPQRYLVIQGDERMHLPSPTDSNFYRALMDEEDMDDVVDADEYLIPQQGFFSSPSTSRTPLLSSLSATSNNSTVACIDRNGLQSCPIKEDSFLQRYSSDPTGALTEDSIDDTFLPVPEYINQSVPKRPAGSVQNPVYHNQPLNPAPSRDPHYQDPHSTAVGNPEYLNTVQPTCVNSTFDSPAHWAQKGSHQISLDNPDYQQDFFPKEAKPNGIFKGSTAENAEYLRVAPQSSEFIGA

Cc1ccc2nc(Nc3ncnc4c3cnn4-c3ccccc3)sc2c1
inhibition [1]: inactive

O=C(NC1CCCCC1)c1ccc(Nc2ncnc3c2cnn3-c2ccccc2)cc1
GI50 [2]: 21.7 µM | TGI [2]: > 100 µM | CC50 [2, 36]: > 100 µM | GI50 [3]: 5.85 µM | TGI [3]: > 100 µM | CC50 [3, 36]: > 100 µM | GI50 [4]: 7.09 µM | TGI [4]: > 100 µM | CC50 [4, 36]: > 100 µM | GI50 [5]: 3.37 µM | TGI [5]: 34.2 µM | CC50 [5, 36]: > 100 µM | GI50 [6]: > 100 µM | TGI [6]: > 100 µM | CC50 [6, 36]: > 100 µM | GI50 [7]: 2.62 µM | TGI [7]: 8.78 µM | CC50 [7, 36]: 37.3 µM | Activity [8]: 11.9% | GI50 [9]: 75.6 µM | TGI [9]: > 100 µM | CC50 [9, 36]: > 100 µM | GI50 [10]: 2.53 µM | TGI [10]: 8.29 µM | CC50 [10, 36]: 86.6 µM | GI50 [11]: 7.06 µM | TGI [11]: > 100 µM | CC50 [11, 36]: > 100 µM | GI50 [12]: 3.47 µM | TGI [12]: 18.3 µM | CC50 [12, 36]: 65.5 µM | fold change (FC) [13]: 3 | GI50 [14]: 67.8 µM | TGI [14]: > 100 µM | CC50 [14, 36]: > 100 µM | GI50 [15]: > 100 µM | TGI [15]: > 100 µM | CC50 [15, 36]: > 100 µM | GI50 [16]: > 100 µM | TGI [16]: > 100 µM | CC50 [16, 36]: > 100 µM | GI50 [17]: 6.42 µM | TGI [17]: > 100 µM | CC50 [17, 36]: > 100 µM | GI50 [18]: 3.87 µM | TGI [18]: 19.3 µM | CC50 [18, 36]: > 100 µM | GI50 [19]: 15.2 µM | TGI [19]: 95.2 µM | CC50 [19, 36]: > 100 µM | GI50 [20]: 2.98 µM | TGI [20]: 13.3 µM | CC50 [20, 36]: 43.1 µM | GI50 [21]: 4.01 µM | TGI [21]: > 100 µM | CC50 [21, 36]: > 100 µM | GI50 [22]: 74.1 µM | LC50 [22]: > 100 µM | TGI [22]: > 100 µM | GI50 [23]: 12.5 µM | TGI [23]: > 100 µM | CC50 [23, 36]: > 100 µM | GI50 [24]: 20.2 µM | TGI [24]: > 100 µM | CC50 [24, 36]: > 100 µM | GI50 [25]: 2.43 µM | TGI [25]: 9.33 µM | CC50 [25, 36]: 56.9 µM | GI50 [26]: 21.7 µM | TGI [26]: > 100 µM | CC50 [26, 36]: > 100 µM | GI50 [27]: 99.3 µM | TGI [27]: > 100 µM | CC50 [27, 36]: > 100 µM | GI50 [28]: 3.83 µM | TGI [28]: 39.4 µM | CC50 [28, 36]: > 100 µM | GI50 [29]: 2.95 µM | TGI [29]: 8.7 µM | CC50 [29, 36]: 51.1 µM | GI50 [30]: 3.32 µM | TGI [30]: 11 µM | CC50 [30, 36]: 37 µM | GI50 [31]: 1.71 µM | TGI [31]: 5.4 µM | CC50 [31, 36]: 35.9 µM | GI50 [32]: 15.8 µM | TGI [32]: > 100 µM | CC50 [32, 36]: > 100 µM | GI50 [33]: 10.9 µM | TGI [33]: 89.9 µM | CC50 [33, 36]: > 100 µM | GI50 [34]: 14.4 µM | TGI [34]: 65.9 µM | CC50 [34, 36]: > 100 µM

O=c1sc2cc(Nc3ncnc4c3cnn4-c3ccccc3)ccc2n1Cc1ccc(Cl)cc1
inhibition [35]: inactive

Reference: ChEMBL document CHEMBL3751764, “Synthesis and in vitro antiproliferative activity of novel pyrazolo[3,4-d]pyrimidine derivatives” (Medchemcomm, 2015)
